Experimental findings from patent US10023593B2, “ALK kinase inhibitor, and preparation method and uses thereof” (BEIJING PEARL BIOTECHNOLOGY LIMITED LIABILITY COMPANY, priority 2014, dated 2018) are described below.

Where only a bound is given, the exact number is not on record here.

In one assay the target is T1, cytochrome P450 1A2 (Homo sapiens, UniProt P05177).
T1 sequence (P05177 1-516): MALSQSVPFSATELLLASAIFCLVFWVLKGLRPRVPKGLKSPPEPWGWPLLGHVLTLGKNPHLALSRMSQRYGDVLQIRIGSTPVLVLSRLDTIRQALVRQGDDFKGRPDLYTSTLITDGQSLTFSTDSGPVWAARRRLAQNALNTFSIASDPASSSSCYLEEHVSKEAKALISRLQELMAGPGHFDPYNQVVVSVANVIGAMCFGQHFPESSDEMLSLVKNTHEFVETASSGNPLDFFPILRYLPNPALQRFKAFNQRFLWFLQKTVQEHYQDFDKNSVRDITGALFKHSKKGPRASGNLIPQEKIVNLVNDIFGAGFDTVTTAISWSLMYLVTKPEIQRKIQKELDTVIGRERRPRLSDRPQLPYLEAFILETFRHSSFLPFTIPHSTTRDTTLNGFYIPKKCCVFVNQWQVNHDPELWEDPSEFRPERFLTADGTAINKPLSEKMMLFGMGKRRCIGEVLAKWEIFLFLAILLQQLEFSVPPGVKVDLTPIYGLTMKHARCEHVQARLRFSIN
Briefly: Inhibitory activity on cytochrome P450 1A2. Type of assay: in vitro ADME. Conditions: no significant inhibition.

In another assay the target is cytochrome P450 2D6 (Homo sapiens, UniProt P10635). The experiment in a line: Inhibitory activity on cytochrome P450 2D6. Type of assay: in vitro ADME. As to conditions: no significant inhibition.
Chain of cytochrome P450 2D6 (P10635 whole entry): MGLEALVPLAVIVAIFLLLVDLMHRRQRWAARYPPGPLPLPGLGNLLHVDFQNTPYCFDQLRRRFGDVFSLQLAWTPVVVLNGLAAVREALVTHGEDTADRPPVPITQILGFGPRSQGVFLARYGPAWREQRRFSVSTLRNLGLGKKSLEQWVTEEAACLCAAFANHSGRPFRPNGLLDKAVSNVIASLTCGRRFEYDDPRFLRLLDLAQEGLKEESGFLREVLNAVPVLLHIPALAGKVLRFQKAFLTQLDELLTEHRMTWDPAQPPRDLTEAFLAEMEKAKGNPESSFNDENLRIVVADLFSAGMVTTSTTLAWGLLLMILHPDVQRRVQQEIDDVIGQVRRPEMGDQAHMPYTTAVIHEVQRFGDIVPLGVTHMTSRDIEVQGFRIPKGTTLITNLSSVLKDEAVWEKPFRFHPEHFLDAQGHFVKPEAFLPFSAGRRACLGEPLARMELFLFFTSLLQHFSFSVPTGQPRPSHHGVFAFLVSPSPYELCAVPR
Another assay has as its target cytochrome P450 2C9 (Homo sapiens, UniProt P11712). Briefly: Inhibitory activity on cytochrome P450 2C9. Type of assay: in vitro ADME. Conditions: no significant inhibition.
Another assay concerns the target cytochrome P450 3A4 (Homo sapiens, UniProt P08684). The experiment in a line: Inhibitory activity on cytochrome P450 3A4. Type of assay: in vitro ADME. As to conditions: no significant inhibition.
The target of the next assay is cytochrome P450 2C19 (Homo sapiens, UniProt P33261). The experiment in a line: Inhibitory activity on cytochrome P450 2C19. Type of assay: in vitro ADME. Conditions: no significant inhibition.
Chain of cytochrome P450 2C19 (P33261 whole entry): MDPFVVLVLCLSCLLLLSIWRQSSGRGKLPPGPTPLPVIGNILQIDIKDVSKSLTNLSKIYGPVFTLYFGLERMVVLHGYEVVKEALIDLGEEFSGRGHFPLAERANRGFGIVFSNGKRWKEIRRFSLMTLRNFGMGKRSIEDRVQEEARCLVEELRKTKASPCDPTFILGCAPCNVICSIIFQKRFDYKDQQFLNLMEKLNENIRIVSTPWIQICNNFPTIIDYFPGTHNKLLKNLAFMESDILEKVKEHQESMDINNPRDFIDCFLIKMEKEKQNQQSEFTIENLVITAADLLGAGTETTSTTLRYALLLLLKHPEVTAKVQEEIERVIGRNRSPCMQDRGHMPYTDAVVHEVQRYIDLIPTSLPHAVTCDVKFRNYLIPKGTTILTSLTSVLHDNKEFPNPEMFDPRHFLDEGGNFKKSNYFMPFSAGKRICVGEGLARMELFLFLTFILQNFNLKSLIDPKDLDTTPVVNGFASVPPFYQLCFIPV
A further assay concerns Karpas-299 cell line. The experiment in a line: CellTiter-Glo cell proliferation inhibition on Karpas-299 cell line. The class given is cell-based. As to conditions: Homo sapiens, 96 h, Karpas-299 cells, 5000 cells/well, 4 days drug treatment. How it is done:
4. Cell Proliferation Inhibitory Activities of the Compounds of the Present Invention on Karpas-299 Cell Line
? experimental method ? CellTiter-Glo® Luminescent Cell Viability Assay kit from Promega company was used to detect cell proliferation inhibitory activities of the compounds on Karpas-299 cell line.
? instrument ? Envision 2104 plate reader from PerKinElmer company; Vi-Cell XR cell counter from Beckman Counter company; MCO-18AIC CO2 incubator from SANYO company.
? experiment material ? CellTiter-Glo® Luminescent Cell Viability Assay Kit (Promega company, catalog No. G7573); Karpas-299 cell line (DSMZ, catalog No. ACC31); RPMI-1640 medium (HyClone company, catalog No. SH30809.01B); fetal bovine serum (FBS) (Gibco company, catalog No. 10099-141); PBS (HyClone company, catalog No. SH30256.01B); 96 wells cell culture plate (Corning company, catalog No. 3610); DMSO (AMRESCO company, catalog No. 0231); 96 wells plates (for diluting compounds) (CITOTEST company, catalog No. Ref36020096D);
? experimental condition ? Karpas-299 cells in exponential growth phase were collected and viable cells were counted by Vi-Cell XR cell counter. Cell suspension was adjusted to 62500 cells/ml with culture medium (RPMI-1640+10% FBS). 80 μl cell suspension was added into each well of 96 wells cell culture plate so that so that the final cell number of Karpas-299 cells was 5000 cells/well. The cells were cultivated in an incubator with an atmosphere of 37° C., 5% CO2 and 95% humidity for 2 hours and then each well was added with 20 μl compounds in RPMI-1640 medium solution (the final concentration of DMSO was 0.5%). 4 days after drug treatment, each well was added with 50 μl CellTiter-Glo solution which was previously thawed and equilibrated to room temperature, and mixed for 2 minutes with microplate shaker. After placing at room temperature for 10 minutes, luminescence reading value was measured with PerkinElmer Envision 2104 plate reader and the data was analyzed.
? tested samples ? Compounds of the examples.
Luminescence value of DMSO solvent control (Vvehicle control, which is the mean luminescence value from DMSO solvent control group)
Tested luminescence value (Vsample, which is the luminescence value from given concentration of compounds group) Inhibition rate (%)=(1−Vsample/Vvehicle control)×100
? data processing ? IC50 of compounds was calculated by using XLfit program in Excel.
(In general: In ATP-based viability assays light output follows the ATP content of the culture.)

The next assay relates to NCI-H2228 cell line. Briefly: CellTiter-Glo cell proliferation inhibition on NCI-H2228 cell line. The class given is cell-based. Conditions: Homo sapiens, 96 h, NCI-H2228 cells, 5000 cells/well, 4 days drug treatment. The procedure, abridged: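 NCI-H2228 cells, 5000/well in RPMI-1640 + 10% FBS, treated with compounds 2 h after seeding (0.5% DMSO final) for 4 days at 37° C. Viability by CellTiter-Glo luminescence; inhibition relative to DMSO control, IC50 from curve fit.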

A word on the IC50: it is the concentration that inhibits the measured activity by half. The low end stands for greater potency in that assay, the high end for weaker potency in that assay.

Chain of cytochrome P450 2C9 (P11712 whole entry): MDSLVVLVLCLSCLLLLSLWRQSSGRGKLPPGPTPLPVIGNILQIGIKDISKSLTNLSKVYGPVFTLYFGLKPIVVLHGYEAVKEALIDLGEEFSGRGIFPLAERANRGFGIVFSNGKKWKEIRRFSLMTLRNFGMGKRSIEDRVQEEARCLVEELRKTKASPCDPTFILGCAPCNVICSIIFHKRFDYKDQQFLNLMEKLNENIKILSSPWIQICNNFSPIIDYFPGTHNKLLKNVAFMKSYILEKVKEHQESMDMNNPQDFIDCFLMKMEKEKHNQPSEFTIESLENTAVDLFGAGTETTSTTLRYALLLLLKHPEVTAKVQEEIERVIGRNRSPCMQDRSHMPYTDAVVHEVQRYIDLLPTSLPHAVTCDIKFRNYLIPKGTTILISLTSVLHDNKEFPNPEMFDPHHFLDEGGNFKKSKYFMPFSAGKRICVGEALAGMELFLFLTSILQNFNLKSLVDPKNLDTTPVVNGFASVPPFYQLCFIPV
Chain of cytochrome P450 3A4 (P08684 whole entry): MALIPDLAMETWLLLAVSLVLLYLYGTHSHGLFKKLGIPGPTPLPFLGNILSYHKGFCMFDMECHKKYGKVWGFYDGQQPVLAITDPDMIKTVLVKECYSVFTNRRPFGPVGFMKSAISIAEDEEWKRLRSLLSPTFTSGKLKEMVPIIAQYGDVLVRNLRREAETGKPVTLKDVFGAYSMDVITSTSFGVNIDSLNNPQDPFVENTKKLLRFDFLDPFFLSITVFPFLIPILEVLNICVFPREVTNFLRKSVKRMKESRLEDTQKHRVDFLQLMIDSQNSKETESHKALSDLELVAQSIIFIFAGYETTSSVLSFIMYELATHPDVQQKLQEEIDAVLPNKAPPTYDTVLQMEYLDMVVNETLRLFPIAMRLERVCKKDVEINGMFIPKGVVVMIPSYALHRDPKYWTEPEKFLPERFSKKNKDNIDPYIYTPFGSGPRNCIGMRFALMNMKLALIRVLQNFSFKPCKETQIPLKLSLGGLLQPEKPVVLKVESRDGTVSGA

On to `CCN1CCC(c2cc(OC3CC3)c(Nc3ncc(Cl)c(Nc4cn(C)nc4S(=O)(=O)C(C)C)n3)cc2C)CC1` [Final product 114, 5-chloro-N^2-[2-cyclopropoxy-4-(1-ethylpiperidin-4-yl)-5-methylphenyl]-N^4-[1-methyl-3-(isopropylsulfonyl)-1H-pyrazol-4-yl]-pyrimidin-2,4-diamine], for which the IC50 against cytochrome P450 1A2 was over 10 µM; against cytochrome P450 2D6 it was over 10 µM; against cytochrome P450 2C9, over 10 µM; on cytochrome P450 3A4, over 10 µM; on cytochrome P450 2C19, over 10 µM; in the assay with Karpas-299 cell line, 0.01 µM. The IC50 with NCI-H2228 cell line worked out at 0.07 µM.
